From US20100159093A1, “METHOD OF TREATING FOODSTUFF” (priority 2008, published 2010)

Tests used:
[1] = system: aerobic spores, such as B. cereus; assay: Aerobic spore count in raw milk under nitrogen gas; type: cell-based; conditions: 12.0° C., N1 environment (120 ml/min), Example 5, FIG. 5F
Procedure: (§1) With the device shown in FIG. 1, the effect of nitrogen gas on the natural microflora in raw milk (volume approximately 125 ml) was examined by replacing the air (control) in an open vessel (volume approximately 250 ml) at a constant temperature, with a flow-through of 100% nitrogen gas (purity 99.999%, manufacturer AGA) at two different flow-through rates: N1=120 ml/min, N2=40 ml/min.
(§2) The temperature of the raw milk in the sample bottles was adjusted by means of the thermostat (14) of the water bath to bring the temperature of the milk to 6.0° C., 7.0° C. or 12.0° C. The temperature variation in the vessel was less than ±0.1° C.
(§3) The effect of nitrogen gas on the growth of the microflora in a raw milk sample at 12.0° C. Two flow-through rates of the nitrogen gas were used in the study: (▴) 40 ml/min and ([…]) 120 ml/min. […] The following bacterial levels were determined in the samples:
FIG. 5A: Total bacteria count (p.m.y./ml) FIG. 5B: Total number of psychrotrophs (p.m.y./ml) FIG. 5C: Total number of proteolytic bacteria (p.m.y./ml) FIG. 5D: Total number of lipolytic bacteria (p.m.y./ml) FIG. 5E: Total number of bacteria producing phospholipase (p.m.y./ml). […]

[2] = system: bacteria producing phospholipase; assay: Number of phospholipase-producing bacteria (aerobic cultivation) in raw milk under nitrogen gas; type: cell-based
Procedure: as §1, §2, §3
FIGS. 7A-C show the effect, in three different samples of raw milk (samples A, B and C), of nitrogen gas at 6.0° C. on the number of the bacteria which produce phospholipase. Two flow-through rates of the nitrogen gas were used in the study: (▴) 40 ml/min, i.e. the N2 environment, and ([…]) 120 ml/min, i.e. the N1 environment.

[3] = system: Bacillus cereus; assay: Number of Bacillus cereus bacteria in raw milk (MYP dish) under nitrogen gas; type: cell-based; conditions: 6.0° C., N2 environment (40 ml/min), after 7 days
Procedure: as §1
Two flow-through rates of the nitrogen gas were used in the study; (N2) 40 ml/min and (N1) 120 ml/min.

[4] = system: haemolytic bacteria; assay: Number of haemolytic bacteria in raw milk (blood culture dishes) under nitrogen gas; type: cell-based; conditions: 12.0° C., following four days of treatment
Source text: It is possible to measure the effectiveness of nitrogen gas for preventing growth of phospholipase for instance as a difference in the number of haemolytic microbes in the foodstuff or foodstuff material, which is an indication of the growth-preventing effect of the nitrogen gas, which effect is directed at the microbes, which produce phospholipase-transmitted virulence factors (see Example 6 below).
as §1
Two flow-through rates of the nitrogen gas were used in the study: (grey) 40 ml/min and (black) 120 ml/min.

[5] = system: anaerobically cultivated phospholipase-producing bacteria; assay: Number of anaerobically cultivated phospholipase-producing bacteria in raw milk under nitrogen gas; type: cell-based; conditions: 12.0° C., FIG. 5K
Procedure: With the device shown in FIG. 1, the effect of nitrogen gas on the natural microflora in raw milk (volume approximately 125 ml) was examined by replacing the air (control) in an open vessel (volume approximately 250 ml) at a constant temperature, with a flow-through of 100% nitrogen gas (purity 99.999%, manufacturer AGA) at two different flow-through rates: N1=120 ml/min, N2=40 ml/min. The temperature of the raw milk in the sample bottles was adjusted by means of the thermostat (14) of the water bath to bring the temperature of the milk to 6.0° C., 7.0° C. or 12.0° C. The temperature variation in the vessel was less than ±0.1° C. The effect of nitrogen gas on the growth of the microflora in a raw milk sample at 12.0° C. Two flow-through rates of the nitrogen gas were used in the study: (▴) 40 ml/min and ([…]) 120 ml/min. […] The following bacterial levels were determined in the samples: FIG. 5A: Total bacteria count (p.m.y./ml) FIG. 5B: Total number of psychrotrophs (p.m.y./ml) FIG. 5C: Total number of proteolytic bacteria (p.m.y./ml) FIG. 5D: Total number of lipolytic bacteria (p.m.y./ml) FIG. 5E: Total number of bacteria producing phospholipase (p.m.y./ml). […]

[6] = system: psychrotrophic P. fluorescens strain; conditions: sterile milk, 4° C., Skura et al.; cited from earlier work

## N#N [nitrogen gas]
[1]
  formation (sporulation) of aerobic spores: does not increase the formation (sporulation)
[2]; 6° C., N1 environment (120 ml/min), adequately long treatment period, three raw milk samples
  elimination of the bacteria which produce phospholipase: possible to eliminate the bacteria which produce phospholipase
[2]; 12.0° C., N1 environment (120 ml/min), Example 4 sample
  time from beginning of nitrogen gas treatment to elimination of microbes which produce phospholipase: ≤ 96 h
[2]; 12.0° C., N1 environment (120 ml/min), Examples 4 and 5, FIG. 5E
  growth of the aerobic bacteria which secrete phospholipase: total prevention of growth
[2]; 12.0° C., N2 environment (40 ml/min), Example 4 sample
  growth of the number of the microbes which produce phospholipase: ceases in the N2 environment after 3 days
[2]; 12.0° C., N2 environment (40 ml/min), after 2 days, FIG. 5E
  growth of the aerobic bacteria which secrete phospholipase: total prevention of growth
[2]; at 7° C.
  growth-preventing effect on phospholipase-positive bacteria: impossible to detect this effect
[2]; at 12° C.
  growth-preventing effect on phospholipase-positive bacteria: the effect of the nitrogen gas was obvious
[3]
  elimination of bacteria of the B. cereus type from raw milk: adequate for eliminating the bacteria of the B. cereus type
[4]; N1 environment (120 ml/min)
  haemolytic microbes in the raw milk: none
[4]; N2 environment (40 ml/min)
  haemolytic microbes, less than in the control environment: 2 log-units
[5]; N1 environment (120 ml/min)
  growth of the anaerobic bacteria which secrete phospholipase: total prevention of growth
[5]; N2 environment (40 ml/min)
  growth of the anaerobic bacteria which secrete phospholipase: total prevention of growth
[6]
  growth of P. fluorescens strain versus control culture in normal air: grew slower
  proteolytic activity of the strain: very low compared with that of the control culture
